Test results published in paper PMC5218480 (PLoS ONE, 2017).

Test system: MV-4-11 cells
Test: Gene expression microarray analysis (Affymetrix PrimeView) and GSEA
Assay type: cell-based, human
Set-up: RFU PODN (11730768_x_at) / Fold change /veh PODN (11730768_x_at) / RFU LINC00158 (11744669_a_at) / Fold change /veh LINC00158 (11744669_a_at) / RFU DUSP10 (11751237_a_at) / Fold change /veh DUSP10 (11751237_a_at) / RFU ID3 (11757404_x_at) / Fold change /veh ID3 (11757404_x_at) / RFU PLEKHG5 (11737974_s_at) / Fold change /veh PLEKHG5 (11737974_s_at) / RFU LRRC4B (11730491_at) / Fold change /veh LRRC4B (11730491_at) / RFU GIMAP4 (11747438_a_at) / Fold change /veh GIMAP4 (11747438_a_at) / RFU KRT8 (11758183_x_at) / Fold change /veh KRT8 (11758183_x_at) / RFU CNN1 (11734310_a_at) / Fold change /veh CNN1 (11734310_a_at) / RFU VPS37D (11726825_at) / Fold change /veh VPS37D (11726825_at) / RFU C10orf10 (11716522_x_at) / Fold change /veh C10orf10 (11716522_x_at) / RFU KIR2DL2 /// KIR2DL4 /// KIR2DL5A /// KIR2DL5B /// KIR2DS1 /// KIR2DS2 /// KIR2DS3 /// KIR2DS4 /// KIR3DL3 /// KIR3DL3 /// KIR3DS1 (11738374_at) / Fold change /veh KIR2DL2 /// KIR2DL4 /// KIR2DL5A /// KIR2DL5B /// KIR2DS1 /// KIR2DS2 /// KIR2DS3 /// KIR2DS4 /// KIR3DL3 /// KIR3DL3 /// KIR3DS1 (11738374_at) / RFU C1QL1 (11718748_at) / Fold change /veh C1QL1 (11718748_at) / RFU TMPRSS4 (11747572_a_at) / Fold change /veh TMPRSS4 (11747572_a_at) / RFU HAMP (11756126_x_at) / Fold change /veh HAMP (11756126_x_at) / RFU RNFT2 (11725882_a_at) / Fold change /veh RNFT2 (11725882_a_at) / RFU NR4A2 (11747474_a_at) / Fold change /veh NR4A2 (11747474_a_at) / RFU ABCC12 (11746883_a_at) / Fold change /veh ABCC12 (11746883_a_at) / RFU TMEM136 (11760407_x_at) / Fold change /veh TMEM136 (11760407_x_at) / RFU CLDN22 /// WWC2 (11732394_at) / Fold change /veh CLDN22 /// WWC2 (11732394_at) / RFU HLA-DPB1 (11760878_x_at) / Fold change /veh HLA-DPB1 (11760878_x_at) / RFU SPINT1 (11716480_a_at) / Fold change /veh SPINT1 (11716480_a_at) / RFU GAP43 (11754022_s_at) / Fold change /veh GAP43 (11754022_s_at) / RFU A4GNT (11735810_at) / Fold change /veh A4GNT (11735810_at) / RFU PRB3 (11715151_x_at) / Fold change /veh PRB3 (11715151_x_at) / RFU TUBB4B (11761932_at) / Fold change /veh TUBB4B (11761932_at) / RFU CAPN14 (11732068_a_at) / Fold change /veh CAPN14 (11732068_a_at) / RFU TMCC2 (11721928_a_at) / Fold change /veh TMCC2 (11721928_a_at) / RFU IRGQ (11745062_a_at) / Fold change /veh IRGQ (11745062_a_at) / RFU FAM174B (11720279_a_at) / Fold change /veh FAM174B (11720279_a_at) / RFU TMPRSS4 (11748680_a_at) / Fold change /veh TMPRSS4 (11748680_a_at) / RFU FAM212B (11763350_a_at) / Fold change /veh FAM212B (11763350_a_at) / RFU PLEKHG5 (11743358_a_at) / Fold change /veh PLEKHG5 (11743358_a_at) / RFU ZSCAN30 (11745921_a_at) / Fold change /veh ZSCAN30 (11745921_a_at) / RFU CMKLR1 (11741424_a_at) / Fold change /veh CMKLR1 (11741424_a_at) / RFU LOC101060620 /// MAPK8IP1 (11723275_at) / Fold change /veh LOC101060620 /// MAPK8IP1 (11723275_at) / RFU SPTSSB (11747773_x_at) / Fold change /veh SPTSSB (11747773_x_at) / RFU PRSS12 (11739890_at) / Fold change /veh PRSS12 (11739890_at) / RFU BIN1 (11741810_x_at) / Fold change /veh BIN1 (11741810_x_at) / RFU WNT11 (11732464_a_at) / Fold change /veh WNT11 (11732464_a_at) / RFU C10orf10 (11716521_a_at) / Fold change /veh C10orf10 (11716521_a_at) / RFU C5orf56 (11738089_at) / Fold change /veh C5orf56 (11738089_at) / RFU CYB561 (11721691_x_at) / Fold change /veh CYB561 (11721691_x_at) / RFU ANKRD19P (11752326_a_at) / Fold change /veh ANKRD19P (11752326_a_at) / RFU OR2T12 /// OR2T33 /// OR2T8 (11738714_s_at) / Fold change /veh OR2T12 /// OR2T33 /// OR2T8 (11738714_s_at) / RFU VCAN (11748164_a_at) / Fold change /veh VCAN (11748164_a_at) / RFU JSRP1 (11732532_at) / Fold change /veh JSRP1 (11732532_at) / RFU KRTAP10-11 (11738290_x_at) / Fold change /veh KRTAP10-11 (11738290_x_at) / RFU MYO3A (11730013_a_at) / Fold change /veh MYO3A (11730013_a_at) / RFU EBF3 (11725865_a_at) / Fold change /veh EBF3 (11725865_a_at) / RFU CAMK2N1 (11719241_x_at) / Fold change /veh CAMK2N1 (11719241_x_at) / RFU C5orf56 (11738088_a_at) / Fold change /veh C5orf56 (11738088_a_at) / RFU OLFML3 (11715873_a_at) / Fold change /veh OLFML3 (11715873_a_at) / RFU LOC100653217 /// NTM (11731650_a_at) / Fold change /veh LOC100653217 /// NTM (11731650_a_at) / RFU MAPK11 (11762145_a_at) / Fold change /veh MAPK11 (11762145_a_at) / RFU FIZ1 (11724087_x_at) / Fold change /veh FIZ1 (11724087_x_at) / RFU OASL (11726364_x_at) / Fold change /veh OASL (11726364_x_at) / RFU SOX15 (11748057_x_at) / Fold change /veh SOX15 (11748057_x_at) / RFU CD79A (11719716_a_at) / Fold change /veh CD79A (11719716_a_at) / RFU HIST1H1D (11736915_at) / Fold change /veh HIST1H1D (11736915_at) / RFU CASKIN2 (11723855_a_at) / Fold change /veh CASKIN2 (11723855_a_at) / RFU LOC730098 (11760151_x_at) / Fold change /veh LOC730098 (11760151_x_at) / RFU OR4N2 (11742367_at) / Fold change /veh OR4N2 (11742367_at) / RFU PRRT2 (11749266_a_at) / Fold change /veh PRRT2 (11749266_a_at) / RFU SNX32 (11753110_a_at) / Fold change /veh SNX32 (11753110_a_at) / RFU CDHR5 (11726645_a_at) / Fold change /veh CDHR5 (11726645_a_at) / RFU RCAN1 (11760418_a_at) / Fold change /veh RCAN1 (11760418_a_at) / RFU FAM167A (11723789_a_at) / Fold change /veh FAM167A (11723789_a_at) / RFU FAM26E (11764081_at) / Fold change /veh FAM26E (11764081_at) / RFU ISYNA1 (11749810_s_at) / Fold change /veh ISYNA1 (11749810_s_at) / RFU ACY1 (11761880_at) / Fold change /veh ACY1 (11761880_at) / RFU 11764098_at / Fold change /veh 11764098_at / RFU SAMD14 (11745864_x_at) / Fold change /veh SAMD14 (11745864_x_at) / RFU NPB (11741838_a_at) / Fold change /veh NPB (11741838_a_at) / RFU TMPRSS6 (11731388_a_at) / Fold change /veh TMPRSS6 (11731388_a_at) / RFU KRTAP10-2 (11738614_at) / Fold change /veh KRTAP10-2 (11738614_at) / RFU ARHGAP8 /// PRR5-ARHGAP8 (11727945_x_at) / Fold change /veh ARHGAP8 /// PRR5-ARHGAP8 (11727945_x_at) / RFU KRTAP5-7 /// NADSYN1 (11734609_at) / Fold change /veh KRTAP5-7 /// NADSYN1 (11734609_at) / RFU RASL12 (11751679_a_at) / Fold change /veh RASL12 (11751679_a_at) / RFU CDKN2B (11736163_a_at) / Fold change /veh CDKN2B (11736163_a_at) / RFU PRF1 (11729649_at) / Fold change /veh PRF1 (11729649_at) / RFU, ZNF638 /// ZNF638-IT1 / Fold change vs veh, ZNF638 /// ZNF638-IT1 / RFU, PANK3 / Fold change vs veh, PANK3 / RFU, SH3YL1 / Fold change vs veh, SH3YL1 / RFU, ZEB2 / Fold change vs veh, ZEB2 / RFU, NRIP1 / Fold change vs veh, NRIP1 / RFU, PTTG1IP / Fold change vs veh, PTTG1IP / RFU, CAPN2 / Fold change vs veh, CAPN2 / RFU, MED14 / Fold change vs veh, MED14 / RFU, SNORA58 / Fold change vs veh, SNORA58 / RFU, C1orf63 / Fold change vs veh, C1orf63 / RFU, LRRFIP1 / Fold change vs veh, LRRFIP1 / RFU, NDUFAF7 / Fold change vs veh, NDUFAF7 / RFU, SLC12A2 / Fold change vs veh, SLC12A2 / RFU, IBTK / Fold change vs veh, IBTK / RFU, ESF1 / Fold change vs veh, ESF1 / Fold change vs veh, TMEM50B / RFU, TAOK1 / Fold change vs veh, TAOK1 / RFU, ACBD3 / Fold change vs veh, ACBD3 / RFU, TMA16 / Fold change vs veh, TMA16 / RFU, RWDD3 / Fold change vs veh, RWDD3 / RFU, BCAT1 / Fold change vs veh, BCAT1 / RFU, EDEM3 / Fold change vs veh, EDEM3 / RFU, TMEM33 / Fold change vs veh, TMEM33 / RFU, WDR75 / Fold change vs veh, WDR75 / RFU, AHCTF1 / Fold change vs veh, AHCTF1 / RFU, TFRC / Fold change vs veh, TFRC / RFU, ZDHHC17 / Fold change vs veh, ZDHHC17 / RFU, NOM1 / Fold change vs veh, NOM1 / RFU, ARL8B / Fold change vs veh, ARL8B / RFU, ZBTB11 / Fold change vs veh, ZBTB11 / RFU, TAMM41 / Fold change vs veh, TAMM41 / RFU, KIAA1704 /// LOC100996395 / Fold change vs veh, KIAA1704 /// LOC100996395 / RFU, ING1 / Fold change vs veh, ING1 / RFU, TRMT61B / Fold change vs veh, TRMT61B / RFU, FUBP3 / Fold change vs veh, FUBP3 / RFU, TP53 / Fold change vs veh, TP53 / RFU, TNKS2 / Fold change vs veh, TNKS2 / RFU, ZFP14 / Fold change vs veh, ZFP14 / RFU, ACTR2 / Fold change vs veh, ACTR2 / RFU, PPP3R1 / Fold change vs veh, PPP3R1 / RFU, PIK3R1 / Fold change vs veh, PIK3R1 / RFU, HNRNPA1 / Fold change vs veh, HNRNPA1 / RFU, RNF170 / Fold change vs veh, RNF170 / RFU, ZNF28 / Fold change vs veh, ZNF28 / RFU, RNGTT / Fold change vs veh, RNGTT / RFU, OGT / Fold change vs veh, OGT / RFU, BRD1 / Fold change vs veh, BRD1 / RFU, MARS / Fold change vs veh, MARS / RFU, ZNF655 / Fold change vs veh, ZNF655 / RFU, FAHD1 / Fold change vs veh, FAHD1 / RFU, BDP1 / Fold change vs veh, BDP1 / RFU, LRRCC1 / Fold change vs veh, LRRCC1 / RFU, ARID1A / Fold change vs veh, ARID1A / RFU, ZNF146 / Fold change vs veh, ZNF146 / RFU, ZNF330 / Fold change vs veh, ZNF330 / RFU, GPN3 / Fold change vs veh, GPN3 / RFU, C9orf123 / Fold change vs veh, C9orf123 / RFU, N4BP2L2 / Fold change vs veh, N4BP2L2 / RFU, ARFIP1 / Fold change vs veh, ARFIP1 / RFU, FAM179B / Fold change vs veh, FAM179B / RFU, BCL10 / Fold change vs veh, BCL10 / RFU, UHRF1BP1L / Fold change vs veh, UHRF1BP1L / RFU, BET1 / Fold change vs veh, BET1 / RFU, CNOT2 / Fold change vs veh, CNOT2 / RFU, ZNF268 / Fold change vs veh, ZNF268 / Fold change vs veh, ZNF507 / RFU, DGCR2 / Fold change vs veh, DGCR2 / RFU, WDSUB1 / Fold change vs veh, WDSUB1 / Fold change vs veh, HSP90B1 /// MIR3652 / RFU, ADSS / Fold change vs veh, ADSS / RFU, GK / Fold change vs veh, GK / RFU, ZNF148 / Fold change vs veh, ZNF148 / RFU, TAF9 / Fold change vs veh, TAF9 / RFU, SLC1A5 / Fold change vs veh, SLC1A5 / RFU, SLMO2 / Fold change vs veh, SLMO2 / RFU, ABCC4 / Fold change vs veh, ABCC4 / RFU, LOC101060439 /// RAP1B / Fold change vs veh, LOC101060439 /// RAP1B / RFU, RFX7 / Fold change vs veh, RFX7 / RFU, GTPBP10 / Fold change vs veh, GTPBP10 / RFU, CNEP1R1 / Fold change vs veh, CNEP1R1 / RFU, BIVM-ERCC5 /// ERCC5 / Fold change vs veh, BIVM-ERCC5 /// ERCC5 / RFU, ILF3 / Fold change vs veh, ILF3 / RFU 11762660_at / Fold change /veh 11762660_at / RFU VCAN (11757783_s_at) / Fold change /veh VCAN (11757783_s_at) / RFU DDX43 (11728927_at) / Fold change /veh DDX43 (11728927_at) / RFU KRT8 (11758188_x_at) / Fold change /veh KRT8 (11758188_x_at) / RFU NKD1 (11759106_at) / Fold change /veh NKD1 (11759106_at) / RFU SRD5A1 (11742802_a_at) / Fold change /veh SRD5A1 (11742802_a_at) / RFU TPSAB1 /// TPSB2 (11721975_s_at) / Fold change /veh TPSAB1 /// TPSB2 (11721975_s_at) / RFU GSTM3 (11746129_a_at) / Fold change /veh GSTM3 (11746129_a_at) / RFU IL23R (11737362_x_at) / Fold change /veh IL23R (11737362_x_at) / RFU TMEM51 (11727254_a_at) / Fold change /veh TMEM51 (11727254_a_at) / RFU PIWIL2 (11732686_x_at) / Fold change /veh PIWIL2 (11732686_x_at) / RFU ORM1 (11744905_x_at) / Fold change /veh ORM1 (11744905_x_at) / RFU CCDC152 (11743942_at) / Fold change /veh CCDC152 (11743942_at) / RFU ECM1 (11717891_a_at) / Fold change /veh ECM1 (11717891_a_at) / RFU IL23R (11748794_a_at) / Fold change /veh IL23R (11748794_a_at) / RFU TNFAIP8L3 (11732012_x_at) / Fold change /veh TNFAIP8L3 (11732012_x_at) / RFU MBOAT4 (11741988_at) / Fold change /veh MBOAT4 (11741988_at) / RFU 11764193_at / Fold change /veh 11764193_at / RFU TMEM53 (11763286_at) / Fold change /veh TMEM53 (11763286_at) / RFU MAGEB2 (11727129_at) / Fold change /veh MAGEB2 (11727129_at) / RFU TMEM200A (11744735_a_at) / Fold change /veh TMEM200A (11744735_a_at) / RFU CCDC152 (11751479_a_at) / Fold change /veh CCDC152 (11751479_a_at) / RFU FAM211A (11726209_a_at) / Fold change /veh FAM211A (11726209_a_at) / RFU RGS16 (11746705_a_at) / Fold change /veh RGS16 (11746705_a_at) / RFU VCAN (11755009_s_at) / Fold change /veh VCAN (11755009_s_at) / RFU RHOB (11743442_s_at) / Fold change /veh RHOB (11743442_s_at) / RFU RGS16 (11720943_a_at) / Fold change /veh RGS16 (11720943_a_at) / RFU RGS16 (11720944_at) / Fold change /veh RGS16 (11720944_at) / RFU, VPS4B / Fold change vs veh, VPS4B / RFU, CREB1 / Fold change vs veh, CREB1 / RFU, DNAJC13 / Fold change vs veh, DNAJC13 / RFU, GNAQ / Fold change vs veh, GNAQ / RFU, CDK5R1 / Fold change vs veh, CDK5R1 / RFU, ZRANB3 / Fold change vs veh, ZRANB3 / RFU, CUL4A / Fold change vs veh, CUL4A / RFU, CCNY / Fold change vs veh, CCNY / RFU, UFL1 / Fold change vs veh, UFL1 / RFU, COG3 / Fold change vs veh, COG3 / RFU, DIAPH2 / Fold change vs veh, DIAPH2 / RFU, SKA2 / Fold change vs veh, SKA2 / RFU, AFF3 / Fold change vs veh, AFF3 / RFU, LMF1 / Fold change vs veh, LMF1 / RFU, IPO11 / Fold change vs veh, IPO11 / RFU, DFFB / Fold change vs veh, DFFB / RFU, FOXP1 / Fold change vs veh, FOXP1 / RFU, CARD8 / Fold change vs veh, CARD8 / RFU, STRN3 / Fold change vs veh, STRN3 / RFU, ADK / Fold change vs veh, ADK / RFU, RASSF2 / Fold change vs veh, RASSF2 / RFU, WIPF1 / Fold change vs veh, WIPF1 / RFU, LARP1B / Fold change vs veh, LARP1B / RFU, RASA1 / Fold change vs veh, RASA1 / RFU, RB1 / Fold change vs veh, RB1 / RFU, PPFIA1 / Fold change vs veh, PPFIA1 / RFU, MAT2A / Fold change vs veh, MAT2A / RFU, CCT5 / Fold change vs veh, CCT5 / RFU, WDR92 / Fold change vs veh, WDR92 / RFU, CUX1 / Fold change vs veh, CUX1 / RFU, TTC7A / Fold change vs veh, TTC7A / RFU, TMEM135 / Fold change vs veh, TMEM135 / RFU, DEPTOR / Fold change vs veh, DEPTOR / RFU, CPM / Fold change vs veh, CPM / RFU, DNAJB6 / Fold change vs veh, DNAJB6 / RFU, CACNA2D3 / Fold change vs veh, CACNA2D3 / RFU, DTX4 / Fold change vs veh, DTX4 / RFU, TFCP2 / Fold change vs veh, TFCP2 / RFU, GMCL1 /// GMCL1P1 / Fold change vs veh, GMCL1 /// GMCL1P1 / RFU, AEBP2 / Fold change vs veh, AEBP2 / RFU, SNHG1 /// SNORD22 /// SNORD25 /// SNORD26 /// SNORD27 /// SNORD28 /// SNORD29 /// SNORD31 / Fold change vs veh, SNHG1 /// SNORD22 /// SNORD25 /// SNORD26 /// SNORD27 /// SNORD28 /// SNORD29 /// SNORD31 / Fold change (Aza/veh), C12orf56 (ProbeSet 11735607_a_at) / Fold change (ACY-1035/veh), C12orf56 (ProbeSet 11735607_a_at) / Fold change (Aza/veh), FGFR1OP (ProbeSet 11751329_s_at) / Fold change (ACY-1035/veh), FGFR1OP (ProbeSet 11751329_s_at) / Fold change (Aza/veh), VPS36 (ProbeSet 11739960_a_at) / Fold change (ACY-1035/veh), VPS36 (ProbeSet 11739960_a_at) / RFU SYPL1 (11715823_x_at) / Fold change /veh SYPL1 (11715823_x_at) / RFU IGFBP7 (11715501_s_at) / Fold change /veh IGFBP7 (11715501_s_at) / RFU REEP3 (11722064_at) / Fold change /veh REEP3 (11722064_at) / RFU IGLL1 (11728026_x_at) / Fold change /veh IGLL1 (11728026_x_at): dose or concentration left out as unconfirmed
Conditions: MV-4-11 cells, 48 hours

Compound: Nc1ccc(-c2cccs2)cc1NC(=O)c1ccc2c(c1)cc(C1CC1)n2CCN1CCOCC1 [ACY-1035]
- RFU PRB3 (11715151_x_at): 8.09 RFU
